Drawing on the supplement of paper PMC10307832, this text covers relative viability for five cell lines.

Holding throughout (test): relative viability (nuclei count vs DMSO), 5 days (fraction); higher = more cells survive
Compound in experiment [1]: C/C(=N\NC(=S)N1CCC1)/C2=CC=CC=N2 + CC(=O)c1c(C)c2cnc(Nc3ccc(N4CCNCC4)cn3)nc2n(C2CCCC2)c1=O [Palbociclib] (partner 0.5 µM)
The gist of the method:
(§1)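 Relative viability was taken as the ratio of nuclei in treated wells to nuclei in vehicle wells. Lung cancer cell lines in 1536-well plates received compounds by pin tool one day after seeding, either one drug alone or a fixed anchor-drug dose plus five library-drug doses (not always all listed) in √10 steps. Nuclei were counted on 4× images after 5 days of treatment, and values are medians of duplicate plates.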

Compound in experiment [2]: C/C(=N\NC(=S)N1CCC1)/C2=CC=CC=N2 + CC(C)C[C@H](NC(=O)[C@H](Cc1ccccc1)NC(=O)c1cnccn1)B(O)O [Bortezomib] (partner 0.002 µM)
In outline: as §1

Compound in experiment [3]: C/C(=N\NC(=S)N1CCC1)/C2=CC=CC=N2 + Cc1nc(Nc2ncc(C(=O)Nc3c(C)cccc3Cl)s2)cc(N2CCN(CCO)CC2)n1 [Dasatinib] (partner 0.075 µM)
The gist of the method: as §1

Compound in experiment [4]: C/C(=N\NC(=S)N1CCC1)/C2=CC=CC=N2 + Cc1nc(NC(=O)N2CCC[C@H]2C(N)=O)sc1-c1ccnc(C(C)(C)C(F)(F)F)c1 [Alpelisib] (partner 2 µM)
The gist of the method:
as §1

Take NCI-H2347: the relative viability in experiment [1] (first compound 0.05 µM) was 0.323; in experiment [1] (first compound 0.1581 µM) it was 0.305; in experiment [1] (first compound 0.5 µM), 0.282; in experiment [1] (first compound 1.581 µM), 0.277; in experiment [1] (first compound 5 µM) it was 0.29; in experiment [2] (first compound 0.05 µM) it was 0.299. Besides, the relative viability in experiment [2] (first compound 0.1581 µM) stood at 0.329; in experiment [2] (first compound 0.5 µM), 0.401; in experiment [2] (first compound 1.581 µM), 0.268; in experiment [2] (first compound 5 µM), 0.263; in experiment [3] (first compound 0.05 µM), 0.209; in experiment [3] (first compound 0.1581 µM), 0.199. Further, the relative viability came out at 0.26 in experiment [3] (first compound 0.5 µM); 0.23 in experiment [3] (first compound 1.581 µM); 0.179 in experiment [3] (first compound 5 µM); 0.312 in experiment [4] (first compound 0.05 µM); 0.254 in experiment [4] (first compound 0.1581 µM); 0.296 in experiment [4] (first compound 0.5 µM). The relative viability in experiment [4] (first compound 1.581 µM) stood at 0.274; in experiment [4] (first compound 5 µM) it was 0.352.

For the cell line NCI-H2126, the relative viability stood at 0.249 in experiment [1] (first compound 0.05 µM); 0.34 in experiment [1] (first compound 0.1581 µM); 0.212 in experiment [1] (first compound 0.5 µM); 0.207 in experiment [1] (first compound 1.581 µM); 0.209 in experiment [1] (first compound 5 µM); 0.364 in experiment [2] (first compound 0.05 µM). Moreover, the relative viability in experiment [2] (first compound 0.1581 µM) turned out to be 0.244; in experiment [2] (first compound 0.5 µM), 0.223; in experiment [2] (first compound 1.581 µM), 0.201; in experiment [2] (first compound 5 µM) it was 0.186; in experiment [3] (first compound 0.05 µM) it was 0.185; in experiment [3] (first compound 0.1581 µM), 0.18. For the same cell line, the relative viability in experiment [3] (first compound 0.5 µM) came out at 0.179; in experiment [3] (first compound 1.581 µM), 0.163; in experiment [3] (first compound 5 µM), 0.187; in experiment [4] (first compound 0.05 µM) it was 0.327; in experiment [4] (first compound 0.1581 µM) it was 0.748; in experiment [4] (first compound 0.5 µM), 0.224. For the same cell line, the relative viability is 0.218 in experiment [4] (first compound 1.581 µM) and 0.186 in experiment [4] (first compound 5 µM).

As to HCC-827, the relative viability in experiment [1] (first compound 0.05 µM) came to 0.272; in experiment [1] (first compound 0.1581 µM), 0.229; in experiment [1] (first compound 0.5 µM) it was 0.173; in experiment [1] (first compound 1.581 µM), 0.166; in experiment [1] (first compound 5 µM) it was 0.144; in experiment [2] (first compound 0.05 µM), 0.497. Further, the relative viability in experiment [2] (first compound 0.1581 µM) came to 0.497; in experiment [2] (first compound 0.5 µM), 0.325; in experiment [2] (first compound 1.581 µM), 0.274; in experiment [2] (first compound 5 µM), 0.282; in experiment [3] (first compound 0.05 µM), 0.292; in experiment [3] (first compound 0.1581 µM), 0.302. For the same cell line, the relative viability in experiment [3] (first compound 0.5 µM) worked out at 0.21; in experiment [3] (first compound 1.581 µM), 0.241; in experiment [3] (first compound 5 µM) it was 0.283; in experiment [4] (first compound 0.05 µM), 0.556; in experiment [4] (first compound 0.1581 µM), 1.01; in experiment [4] (first compound 0.5 µM), 0.264. Also, the figures for the relative viability in experiment [4] (first compound 1.581 µM) and in experiment [4] (first compound 5 µM) were 0.279 and 0.186, respectively.

For NCI-H3122, the relative viability was 0.0974 in experiment [1] (first compound 0.05 µM); 0.166 in experiment [1] (first compound 0.1581 µM); 0.103 in experiment [1] (first compound 0.5 µM); 0.148 in experiment [1] (first compound 1.581 µM); 0.127 in experiment [1] (first compound 5 µM); 0.17 in experiment [2] (first compound 0.05 µM). The relative viability was 0.139 in experiment [2] (first compound 0.1581 µM); 0.222 in experiment [2] (first compound 0.5 µM); 0.244 in experiment [2] (first compound 1.581 µM); 0.203 in experiment [2] (first compound 5 µM); 0.0675 in experiment [3] (first compound 0.05 µM); 0.0912 in experiment [3] (first compound 0.1581 µM). In addition, the relative viability in experiment [3] (first compound 0.5 µM) is 0.0839; in experiment [3] (first compound 1.581 µM), 0.11; in experiment [3] (first compound 5 µM), 0.11; in experiment [4] (first compound 0.05 µM), 0.154; in experiment [4] (first compound 0.1581 µM), 0.133; in experiment [4] (first compound 0.5 µM) it was 0.193. Further, the relative viability in experiment [4] (first compound 1.581 µM) came out at 0.196; in experiment [4] (first compound 5 µM) it was 0.192.

On to HOP-62, for which the relative viability worked out at 0.0827 in experiment [1] (first compound 0.05 µM); 0.234 in experiment [1] (first compound 0.1581 µM); 0.0724 in experiment [1] (first compound 0.5 µM); 0.107 in experiment [1] (first compound 1.581 µM); 0.0858 in experiment [1] (first compound 5 µM); 0.067 in experiment [2] (first compound 0.05 µM). Also, the relative viability in experiment [2] (first compound 0.1581 µM) turned out to be 0.0599; in experiment [2] (first compound 0.5 µM) it was 0.0594; in experiment [2] (first compound 1.581 µM), 0.0602; in experiment [2] (first compound 5 µM), 0.0491; in experiment [3] (first compound 0.05 µM), 0.0752; in experiment [3] (first compound 0.1581 µM) it was 0.0748. Further, the relative viability in experiment [3] (first compound 0.5 µM) is 0.0769; in experiment [3] (first compound 1.581 µM), 0.0912; in experiment [3] (first compound 5 µM), 0.0784; in experiment [4] (first compound 0.05 µM), 0.105; in experiment [4] (first compound 0.1581 µM) it was 0.895; in experiment [4] (first compound 0.5 µM), 0.0809. Also, the relative viability in experiment [4] (first compound 1.581 µM) was 0.0743; in experiment [4] (first compound 5 µM) it was 0.0607.
